In patent US6525054B1, “Cyanoiminoquinoxaline derivatives” (Shionogi & Co., Ltd., priority 1998, dated 2003):
Structures can show the parent of a compound that is named as a salt.

Tests used:
AMPA receptor = test: Receptor affinity: [3H]AMPA binding to rat cerebral cortex membrane fraction; design: species or system Slc-Wistar rat; conditions: 30 nM [3H]AMPA, 0° C. 30 min
Procedure: (§1) As to 2-cyanoimino-1,4-dihydro-7-(1,4-dihydro-4-oxo-1-pyridyl)-6-nitro-3-quinoxaline monosodium salt (hereinafter referred to as compound 2(2)) obtained in Example 2(2), the affinity for the AMPA receptor and glycine-binding site of the NMDA receptor was determined as follows.
Cerebral cortex of Slc-Wistar rat (body weight: 250˜300 g) was homogenized with 10 times volume of 30 mM Tris-acetate buffer (pH 7.1) containing 2.5 mM CaCl2, then the mixture was centrifugalized (30,000×g, 15 min) and re-suspended (×3 times). The resultant suspension was restored at −80° C. until use. The froze suspension was thawed at room temperature and suspended into 30 mM Tris-acetate buffer (pH 7.1) containing 2.5 mM CaCl2 and 100 mM KSCN, to give a membrane fraction. The membrane fraction was incubated with 30 nM [^3H]AMPA and a test compound of various concentrations at 0° C. for 30 min. The mixture was diluted and collected by filtration with Whatman GF/C filter to terminate the reaction, then the radioactivity of ^3H remained on the filter was determined with a liquid scintillation counter. The non-specific binding was determined using 1 mM non-radioactive glutamate to calculate the IC50 value.

[1] = target: T1, glycine-binding site of NMDA receptor complex (Rattus norvegicus, UniProt P35439); test: Receptor affinity: [3H]glycine binding to rat cerebral cortex membrane fraction; design: species or system Slc-Wistar rat; conditions: 100 nM [3H]glycine, 0° C. 10 min
T1 construct: from tissue; host or cells: rat cerebral cortex membrane fraction (Triton X-100 treated)
Procedure: as §1
Cerebral cortex of Slc-Wistar rat (body weight: 250˜300 g) was homogenized with 20 times volume of 5 mM Tris-acetate buffer (pH 7.4) containing 1 mM EGTA, 0.1 mM PMSF and 0.01% bacitracin […] and re-suspended (×4 times). The resultant suspension was restored at −80° C. until use. The froze suspension was thawed at room temperature and incubated at 2° C. in 0.08% triton X-100 solution for 10 min, then the mixture was washed 2 times and suspended into 50 mM Tris-acetate buffer (pH 7.4), to give a membrane fraction. The membrane fraction was incubated with 100 nM [^3H]glycine and a test compound of various concentrations at 0° C. for 10 min. The mixture was diluted and collected by filtration with Whatman GF/C paper to terminate the reaction, then the radioactivity of ^3H remained on the filter was determined with a liquid scintillation counter. The non-specific binding was determined using 1 mM non-radioactive glycine to calculate the IC50 value.

AMPA-induced seizure = test: Anticonvulsant effect on AMPA-induced seizure; type: in vivo, Slc-ddY mouse; conditions: iv; mouse, i.v. 1 min before AMPA 2 nmol/5 μL i.c.v., observed 15 min, Probit method
Procedure: The anticonvulsant effect of compound 2(2) on AMPA-induced seizure was determined. According to the method described in J. T. Haley and W. G. McCormich, Br. J. Pharmacol. 12, 12-15(1957), AMPA 2 nmol/5 μL was intracerebroventricular administered to the cerebral ventricle of Slc-ddY mouse (4-5 weeks, male). The test compound, in a volume of 0.1 mL /10 g, was intravenously administered 1 min before the AMPA administration. The convulsion was examined by observing and checking, for 15 min from the AMPA administration, the reveal of jumping, wild-running, […] convulsion and tonic convulsion, then the ED50 value was calculated by Probit method.

cerebral infarction = test: Inhibition effect on cerebral infarction (MCA occlusion/reperfusion); type: in vivo, Slc-Wistar rat; conditions: 24 hr of reperfusion
Excerpt: As to compound 2(2), the inhibition effect on cerebral infarction was examined. […] Briefly the animals were anesthetized with halothane (FLUOTHANE, Takeda Chemical Industries Ltd.). After median incision of the neck skin, the right external carotid artery (ECA) was carefully dissected. A coated nylon thread (#4-0, 17.5 mm, Nitcho Kogyo Co. Ltd.) was inserted from the lumen of the ECA to the right internal carotid artery to occlude the origin of the right middle cerebral artery. After surgery, anesthesia was immediately discontinued. […] After 1 hr of MCA occlusion, the thread was removed to allow reperfusion under halothane anesthesia. Body temperature was maintained at 37° C. with a heating pad during ischemic and reperfusion surgery.
The test compound was administered from 15 min after reperfusion for 1 hr by continuous infusion via a catheter (Clay Adams; PE-20) inserted into the femoral vein in a volume of 4 ml/kg/hr.
After 24 hr of reperfusion following 1 hr of MCA occlusion, rat was perfused with physiological saline containing heparin under pentobarbital anesthesia and the brain were removed after decapitation. The brain was cut into 12 coronal sections at 1 mm intervals using tissue chopper (McLWAIN) and immersed in saline containing 2% 2,3,5-triphenyltetrazolium-Cl (Wako Pure Chemical Industries, Ltd.) for 15 min. The stained brain sections were fixed by 10% formalin neutral buffered solution and infarct areas were quantified by an image analyzer system (OPTIMAS, Ver6.0) following scanning (Scantouch210, Nikon).

kidney = test: Nephrotoxicity; type: in vivo; conditions: 100 mg/kg i.v. bolus, SD rat, 24 hr later
Procedure: Compound 2(2) was intravenously administered by a bolus of 100 mg/kg to SD rat (9-10 weeks), which was killed 24 hr later. The both-side kidneys were immediately extracted from the rat. After measuring the weight, one kidney was embedded in paraffin to give a tissue preparation. The other kidney was homogenized, then the extract was subjected to liquid chromatography to determine the concentration of compound 2(2).

IC50 (AMPA receptor): 0.034 µM | IC50 [1]: 7.5 µM
Compound: N#CN=c1[nH]c2cc(-n3ccc(=O)cc3)c([N+](=O)[O-])cc2[nH]c1=O [compound 2(2), 2-cyanoimino-1,4-dihydro-7-(1,4-dihydro-4-oxo-1-pyridyl)-6-nitro-3-quinoxaline monosodium salt]
ED50 (AMPA-induced seizure): 6.9 mg/kg | Infarct area at cerebral cortex (% of saline, mean ± standard error) (cerebral infarction; 0.3 mg/kg/h i.v. infusion for 1 hr from 15 min after reperfusion): 79.55 ± 13.99 % of saline | Infarct area at cerebral cortex (% of saline, mean ± standard error) (cerebral infarction; 1 mg/kg/h i.v. infusion for 1 hr from 15 min after reperfusion): 55.99 ± 11.77 % of saline | Infarct area at cerebral cortex (% of saline, mean ± standard error) (cerebral infarction; 3 mg/kg/h i.v. infusion for 1 hr from 15 min after reperfusion): 50.34 ± 10.14 % of saline | Infarct area at cerebral cortex (% of saline, mean ± standard error) (cerebral infarction; 10 mg/kg/h i.v. infusion for 1 hr from 15 min after reperfusion): 46.71 ± 15.24 % of saline | Kidney tissue pathology (kidney): no pathological unusual | Weight of the kidney compared to the vehicle group (kidney): has not changed | Concentration of compound in the kidney (liquid chromatography) (kidney; kidney homogenate): not detected
